In series [1] the test system is conversion of Amadori compounds to post Amadori advanced glycation endproducts (bovine serum albumin and ribonuclease A glycated by ribose). The series is described as follows: Interrupted glycation: inhibition of post-Amadori AGE formation. It is filed as biochemical. To be noted: interrupted glycation with ribose, 37° C., pH 7.5; read-out: IC50 for inhibiting the conversion of Amadori compounds to post Amadori advanced glycation endproducts. The procedure: The effect of [2,4′]Bipyridinyl-3′-ol, 5-Hydroxymethyl-4-(1H-imidazol-2-yl)-2-methyl-pyridin-3-ol, and 4-(1H-Imidazol-2-yl)-pyridin-3-ol on post-Amadori AGE formation during interrupted glycation of bovine serum albumin and ribonuclease A by ribose was determined in comparison to pyridoxamine. Modification with ribose was done at 37° C. in 0.2 M phosphate buffer of pH 7.5 containing 0.02% sodium azide. The solutions were kept in capped tubes and opened only to remove timed aliquots that were immediately frozen for later carrying out the various analyses. “Interrupted glycation” experiments were carried out by first incubating protein with the ribose at 37° C. for 8 or 24 h, followed by immediate and extensive dialysis against frequent cold buffer changes at 4° C. The samples were then re-incubated by quickly warming to 37° C. in the absence of external ribose. Aliquots were taken and frozen at various intervals for later analysis. (See U.S. Pat. No. 5,985,857)
The interrupted glycation method for following post-Amadori kinetics of AGE formation allows for the rapid quantitative study of “late” stages of the glycation reaction. Importantly, this method allows for inhibition studies that are free of pathways of AGE formation that arise from glycoxidative products of free sugar or Schiff base (Namiki pathway). The experiments were designed to determine the half-maximal inhibitory concentration of these compounds (“IC50 values”) for inhibiting the conversion of Amadori compounds to post Amadori advanced glycation endproducts.

Series [2] addresses T1, bovine serum albumin (Bos taurus, UniProt P02769).
T1 construct: from tissue; host or cells: plasma / serum (from the name; preparation not described)
The series can be described thus: Compound binding to plasma albumin (ultrafiltration, free compound), BSA. In kind it is in vitro ADME. To be noted: BSA 40 mg/ml; for fraction unbound at 8 μg/ml: compound 8 μg/ml; for Kd: read-out: Computed (1:1) Kd. The procedure:
(§1) This study was done to measure the binding of compounds of the present invention to plasma albumin. Such binding can result in longer plasma retention times and enhanced therapeutic efficacy for the compounds. The proteins tested were bovine serum albumin, bovine (BSA) at 40 mg/ml and rat albumin at ˜13 mg/ml.
(§2) Spectrophotmetry: Two mL of protein solution in 0.1M phosphate buffer saline (PBS) at pH 7.4 was titrated with compound in 0.2 M phosphate buffer at pH 7.4. The protein concentration was prepared to have absorbance less than 1 at the observation wavelength range (250-500), and the total volume change during titration was controlled below 2%. The compound-protein binding detection was based on the shift of spectrum.
Free compound measurement: One ml of compound and protein mixture was incubated at 37° C. for about 30 min and loaded into Centricon YM-10 (10,000 MW cut-off, for BSA) or Microcon YC-3 (3,000 MW cut-off). The samples were centrifuged in a fixed-angle rotor at 6,000 rpm for about 6-8 min (Centricon) or at 9,000 rpm for about 15 min (Microcon) to allow about 10-20% of the volume to filter through. Free compound passes through the membrane while the free and complexed protein remains in the sample reservoir. The concentration of free compound in the filtrate is assumed to be the same as in the sample above the membrane. A fixed amount of filtrate aliquot was diluted to 0.6 ml with PBS at pH 7.4 (PBS was prepared using 1 tablet from Sigma dissolved in 200 ml deionized H2O) and measured by UV absorbance. To quantify the percentage of free compound, the same compound at the same concentration in PBS solution, as standard, was prepared in parallel through the same process, or a calibration curve was generated through the same process. 1 ml of PBS solution (as blank) and 1 ml of protein solution (as control) also went through the same process and measurement.
Calculations: The method used to determine the percentage of free compound was either (a) % Free compound=(Asample−Acontrol)/Astandard×100, where, A is absorbance at selected wavelength; or (b) Obtaining free compound concentration of sample from calibration curve, and then divided by total concentration: Kd=[P][L]/[PL] (for 1:1 binding), using BSA MW=70,000.

Series [3] deals with streptozotocin (STZ)-diabetic rats. The series is described as follows: Rat model of diabetic neuropathy (STZ-diabetic rats). It is filed as in vivo. To be noted: 50 mg/L in drinking water. The procedure: Our aim was to ascertain whether BST-4997 treatment could correct nerve dysfunction in streptozotocin (STZ)-diabetic rats. Animals (n=10) were made diabetic for 6 weeks (group D), following which they were treated for 2 weeks with BST-4997 (group DBST) given in the drinking water at a concentration of 50 mg/L. They were compared to control non-diabetic rats (groups C). Statistical significance is reported according to the legend: **, *** p<0.01, p<0.001 versus untreated controls; ### p<0.001 treatment effect versus untreated diabetics.
FIG. 13 provides a graphical representation of the effect of BST-4997 on restoring nerve conduction velocity (NCV) in the STZ rats. Motor NCV was tested between the sciatic notch and knee for the nerve branch to tibialis anterior muscle, as described in Cameron et al., Q. J. Exp. Physiol. 74: 917-926 (1989); and Cameron et al., Exp. Neurol. 92: 757-761 (1986). Saphenous sensory NCV was measured between the groin and ankle.
FIG. 14 provides a graphical representation of the effect of BST-4997 on restoring endoneurial perfusion in the STZ rats. Vascular blood flow, pressure, and conductance were measured.
FIG. 15 provides a graphical representation of the effect of BST-4997 on improving pain related measures in the STZ rats. Responses to tactile allodynia, pressure, and thermal stimuli were measured.

Series [4] addresses T2, rat albumin (Rattus norvegicus, UniProt P02770).
T2 construct: from tissue; host or cells: plasma (from 'plasma albumin'; preparation not described)
The series is described as follows: Compound binding to plasma albumin (ultrafiltration, free compound), rat albumin. In kind it is in vitro ADME. To be noted: compound 10 μg/ml, rat albumin ~13 mg/ml. The procedure: as §1, §2
Free compound measurement: One ml of compound and protein mixture was incubated at 37° C. for about 30 min and loaded into Centricon YM-10 (10,000 MW cut-off, for BSA) or Microcon YC-3 (3,000 MW cut-off). […] A fixed amount of filtrate aliquot was diluted to 0.6 ml with PBS at pH 7.4 (PBS was prepared using 1 tablet from Sigma dissolved in 200 ml deionized H2O) and measured by UV absorbance. To quantify the percentage of free compound, the same compound at the same concentration in PBS solution, as standard, was prepared in parallel through the same process, or a calibration curve was generated through the same process. […]

[5] abbreviates: bovine, bovine serum albumin solution (40 mg/ml), pH 7.4, 37° C.
[6] abbreviates: STZ rats diabetic 6 weeks, then 2 weeks treatment, FIG. 13.
[7] abbreviates: STZ rats, 2 weeks treatment, FIG. 14.
The mark [8] stands for this setting: STZ rats, 2 weeks treatment, FIG. 15.

The record followed here is patent publication US20040122061A1, “Inhibitors of post-amadori advanced glycation end products” (BioStratum, Inc., priority 2002, published 2004).

Where two headings read alike, the source gives them in different places.

T1 sequence (P02769 25-607): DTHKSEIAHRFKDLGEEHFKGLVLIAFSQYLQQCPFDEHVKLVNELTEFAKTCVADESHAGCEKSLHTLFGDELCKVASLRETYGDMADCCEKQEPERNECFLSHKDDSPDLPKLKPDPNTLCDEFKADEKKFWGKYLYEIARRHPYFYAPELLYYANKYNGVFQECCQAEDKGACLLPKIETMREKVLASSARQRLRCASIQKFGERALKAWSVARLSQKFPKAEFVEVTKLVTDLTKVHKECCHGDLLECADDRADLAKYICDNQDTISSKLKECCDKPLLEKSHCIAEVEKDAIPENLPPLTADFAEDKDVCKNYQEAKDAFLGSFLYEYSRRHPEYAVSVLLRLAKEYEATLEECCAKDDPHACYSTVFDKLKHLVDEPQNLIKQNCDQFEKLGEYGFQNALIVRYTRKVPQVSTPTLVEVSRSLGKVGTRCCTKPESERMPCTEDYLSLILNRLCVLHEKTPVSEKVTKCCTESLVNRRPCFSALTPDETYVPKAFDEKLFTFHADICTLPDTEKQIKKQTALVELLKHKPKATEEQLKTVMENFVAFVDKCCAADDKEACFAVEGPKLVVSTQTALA
T2 sequence (P02770 25-608): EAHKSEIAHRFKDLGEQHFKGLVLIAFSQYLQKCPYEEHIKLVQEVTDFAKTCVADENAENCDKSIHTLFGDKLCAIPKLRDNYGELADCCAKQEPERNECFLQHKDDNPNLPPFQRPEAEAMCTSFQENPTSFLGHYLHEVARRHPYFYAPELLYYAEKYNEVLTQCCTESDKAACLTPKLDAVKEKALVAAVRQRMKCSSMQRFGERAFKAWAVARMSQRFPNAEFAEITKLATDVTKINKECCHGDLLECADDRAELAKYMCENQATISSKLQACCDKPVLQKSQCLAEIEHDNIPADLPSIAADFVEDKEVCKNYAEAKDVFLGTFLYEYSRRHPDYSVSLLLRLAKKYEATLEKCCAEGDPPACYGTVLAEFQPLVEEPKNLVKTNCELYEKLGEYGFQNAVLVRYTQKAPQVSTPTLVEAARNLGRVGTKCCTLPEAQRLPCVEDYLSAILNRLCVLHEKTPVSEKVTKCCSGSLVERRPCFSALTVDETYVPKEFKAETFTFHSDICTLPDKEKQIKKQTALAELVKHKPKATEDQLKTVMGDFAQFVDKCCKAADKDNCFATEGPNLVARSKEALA

Usually IC50 stands for the concentration needed to halve the response being measured. `Oc1cnccc1-c1ncc[nH]1` [BST4996, 4-(1H-Imidazol-2-yl)-pyridin-3-ol]: the IC50 in series [1] was in the range of 200 to 300 µM. For the same molecule, the fraction unbound at 8 μg/ml in series [2] (setting [5]) came out at 0.53.
As usually defined, the Kd is the free concentration of one partner at which half of the binding sites on the other are occupied at equilibrium, for simple one-to-one binding. As for `Cc1ncc(CO)c(-c2ncc[nH]2)c1O` [BST4997, 5-Hydroxymethyl-4-(1H-imidazol-2-yl)-2-methyl-pyridin-3-ol], the concentration for half-maximal inhibition (IC50) in series [1] lay in the range of 200 to 300 µM. In series [3] (setting [6]), the “diabetes-associated defect in motor nerve conduction velocity (NCV)” value is recorded as “dramatically reduced”. Further, the “diabetes-associated defect in sensory nerve conduction velocity (NCV)” value in series [3] (setting [6]) is given as “dramatically reduced”. In addition, the “correction of nerve dysfunction” value in series [3] (STZ rats, 2 weeks treatment) is “effective in correcting nerve dysfunction”. Moreover, in series [3] (setting [7]), the “diabetes-associated defect in endoneurial blood flow” value is “dramatically reduced”. Also, the “diabetes-associated defect in endoneurial vascular conductance” value in series [3] (setting [7]) is “dramatically reduced”. In series [3] (setting [8]), the “diabetes-associated defect in tactile allodynia” value is “dramatically reduced”. Moreover, the “diabetes-associated defect in thermal hyperalgesia (latency for foot withdrawal from a noxious heat stimulus)” value in series [3] (setting [8]) is recorded as “dramatically reduced”. Besides, the Kd in series [4] (read-out: Computed (1:1) Kd) was 350 µM; in series [2] (compound 5 μg/ml), 260 µM; in series [2] (compound 10 μg/ml) it was 240 µM; in series [2] (compound 20 μg/ml), 320 µM. Further, the fraction unbound at 10 μg/ml amounted to 0.67 in series [4] (rat albumin solution (~13 mg/ml), pH 7.4, 37° C., read-out: % Free BST4997) and 0.3 in series [2] (bovine, bovine serum albumin solution (40 mg/ml), compound 10 μg/ml, pH 7.4, 37° C., read-out: % Free BST4997). Also, the fraction unbound at 5 μg/ml in series [2] (bovine, bovine serum albumin solution (40 mg/ml), compound 5 μg/ml, pH 7.4, 37° C., read-out: % Free BST4997) stood at 0.31. Besides, the fraction unbound at 20 μg/ml in series [2] (bovine, bovine serum albumin solution (40 mg/ml), compound 20 μg/ml, pH 7.4, 37° C., read-out: % Free BST4997) is 0.38.
In the case of `Cc1ncc(CO)c(CN)c1O` [pyridoxamine, reference compound], the IC50 in series [1] was roughly 3000 µM.
As for `Oc1cnccc1-c1ccccn1` [BST4944, [2,4′]Bipyridinyl-3′-ol], the IC50 in series [1] amounted to 2000 µM. This molecule had a fraction unbound at 8 μg/ml in series [2] (setting [5]) of 0.34.
